System: Unkräutern in Mais
Test: Post-emergence test / greenhouse
Type: in vivo
Details: post-emergence spray, control of weeds in maize, rated after three weeks; compared with comparison substance (A)
Description: Post-emergence-Test/Gewächshaus
Lösungsmittel: 5 Gewichtsteile Aceton
Emulgator: 1 Gewichtsteil Alkylarylpolyglykolether
Zur Herstellung einer zweckmäßigen Wirkstoffzubereitung vermischt man 1 Gewichtsteil Wirkstoff mit der angegebenen Menge Lösungsmittel, gibt die angegebene Menge Emulgator zu und verdünnt das Konzentrat mit Wasser auf die gewünschte Konzentration.
Mit der Wirkstoffzubereitung spritzt man Testpflanzen, welche eine Höhe von 5 - 15 cm haben so, daß die jeweils gewünschten Wirkstoffmengen pro Flächeneinheit ausgebracht werden. Die Konzentration der Spritzbrühe wird so gewählt, daß in 2000 1 Wasser/ha die jeweils gewünschten Wirkstoffmengen ausgebracht werden. Nach drei Wochen wird der Schädigungsgrad der Pflanzen bonitiert in % Schädigung im Vergleich zur Entwicklung der unbehandelten Kontrolle.
Es bedeuten: • O % = keine Wirkung (wie unbehandelte Kontrolle) 100 % = totale Vernichtung

Structure (SMILES): CC(C)n1cc(Oc2ccc(NC(=O)N(C)C)cc2)cn1 [I-1]
- selektive herbizide Wirksamkeit: bessere selektive herbizide Wirksamkeit

Source: patent EP0177710A1, “Phenyl urea derivatives” (BAYER AG, priority 1984, dated 1986)
